Each molecule was assayed on PC-9 cells (EGFR Ex19Del) (assay: Potency Assay: pERK (SOS1 pERK IC50 Assay, AlphaLISA SureFire Ultra p-ERK1/2)). Conditions: Homo sapiens; PC-9 cells (EGFR Ex19Del), 1 hour incubation, AlphaLISA p-ERK1/2; read-out: SOS1 pERK IC50.
Type: cell-based
Description: The purpose of this assay is to measure the ability of test compounds to inhibit SOS1 function in cells. SOS1 activates RAS proteins by catalyzing the conversion of RAS GDP to RAS GTP in response to receptor tyrosine kinase activation. […] The procedure described below measures the level of cellular pERK in response to test compounds in PC-9 cells (EGFR Ex19Del).
PC-9 cells were grown and maintained using media and procedures recommended by the ATCC. On the day prior to compound addition, cells were plated in 384-well cell culture plates (40 μL/well) and grown overnight in a 37° C., 5% CO2 incubator. Test compounds were prepared in 10, 3-fold dilutions in DMSO, with a top concentration of 10 mM. On the day of the assay, 40 nL of test compound was added to each well of cell culture plate using an Echo550 liquid handler (LabCyte). Concentrations of test compound were tested in duplicate with highest test concentration being 10 μM. After compound addition, cells were incubated for 1 hour at 37° C., 5% CO2. Following incubation, culture medium was removed and cells were washed once with phosphate buffered saline.
Cellular pERK level was determined using the AlphaLISA SureFire Ultra p-ERK1/2 Assay Kit (PerkinElmer). Cells were lysed in 25 μL lysis buffer, with shaking at 600 RPM at room temperature for 15 minutes. Lysate (10 μL) was transferred to a 384-well Opti-plate (PerkinElmer) and 5 μL acceptor mix was added. The plate was centrifuged at 1000 RPM for 1 minute, and incubated in the dark for 2 hours. Following this incubation, 5 μL of donor mix was added, the plate was sealed and centrifuged at 1000 RPM for 1 minute, and the mixture was incubated for 2 hours at room temperature. Signal was read on an Envision plate reader (PerkinElmer) using standard AlphaLISA settings. Analysis of raw data was carried out in Excel (Microsoft) and Prism (GraphPad). Signal was plotted vs. the decadal logarithm of compound concentration, and IC50 was determined by fitting a 4-parameter sigmoidal concentration response model.

| SMILES | IC50 [µM] |
| --- | --- |
| COc1ccc(C(=O)N2CCc3nc(Cl)nc(N[C@H](C)c4cc(N)cc(C(F)(F)F)c4)c3C2)nc1OC [Example 244] | > 1 |
| C[C@@H](Nc1nc(Cl)nc2c1CN(C(=O)c1cccc(C(F)(F)F)n1)CC2)c1cc(N)cc(C(F)(F)F)c1 [Example 251] | > 1 |
| C[C@@H](Nc1nc(Cl)nc2c1CN(C(=O)C1CN(C)CCO1)C2)c1cccc(C(F)(F)F)c1 (stereo partly shown) [Example 277] | > 1 |

More lines, now with the values ahead:

| IC50 [µM] | SMILES |
| --- | --- |
| > 1 | CC(Nc1nc(Cl)nc2c1CN(C(=O)N1CCOCC1)C2)c1cccc2c1C[C@H](CO)C2 (stereo in doubt) [Example 464, (2-chloro-4-(((R)-1-((R)-2-(hydroxymethyl)-2,3-dihydro-1H-inden-4-yl)ethyl)amino)-5,7-dihydro-6H-pyrrolo[3,4-d]pyrimidin-6-yl)(morpholino)methanone] |
| > 1 | CC(Nc1nc(Cl)nc2c1CN(C(=O)N1CCOCC1)C2)c1cccc2c1C[C@@H](CO)C2 (stereo in doubt) [Example 465, (2-chloro-4-(((R)-1-((S)-2-(hydroxymethyl)-2,3-dihydro-1H-inden-4-yl)ethyl)amino)-5,7-dihydro-6H-pyrrolo[3,4-d]pyrimidin-6-yl)(morpholino)methanone] |
| < 1 | C[C@@H](Nc1nc(Cl)nc2c1CN(S(=O)(=O)c1ccccn1)CC2)c1cc(N)cc(C(F)(F)F)c1 [Example 459] |

Each molecule was assayed against T1, SOS1 catalytic domain (residues 564-1049) (Homo sapiens, UniProt Q07889) (assay: Mode of Action Assay: inhibition of SOS1 nucleotide exchange activity (SOS1 TR-FRET IC50 Assay)). Conditions: not given.
T1 sequence (Q07889 564-1049): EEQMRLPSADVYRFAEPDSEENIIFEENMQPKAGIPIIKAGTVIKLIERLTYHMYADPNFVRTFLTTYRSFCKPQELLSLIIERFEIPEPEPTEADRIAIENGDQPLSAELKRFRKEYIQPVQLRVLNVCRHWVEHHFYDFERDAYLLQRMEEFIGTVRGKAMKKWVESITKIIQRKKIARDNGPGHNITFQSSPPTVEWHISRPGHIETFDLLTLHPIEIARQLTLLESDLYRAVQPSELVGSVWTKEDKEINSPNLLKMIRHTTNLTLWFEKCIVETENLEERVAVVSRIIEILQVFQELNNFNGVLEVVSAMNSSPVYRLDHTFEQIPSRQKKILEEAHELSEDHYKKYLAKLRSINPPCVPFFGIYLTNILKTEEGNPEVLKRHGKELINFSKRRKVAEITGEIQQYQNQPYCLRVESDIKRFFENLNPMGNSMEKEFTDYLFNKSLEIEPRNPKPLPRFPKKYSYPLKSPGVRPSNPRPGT

| SMILES | IC50 [µM] |
| --- | --- |
| C[C@@H](Nc1nc(Cl)nc2c1CCN(CC1CCOC1)CC2)c1cc(N)cc(C(F)(F)F)c1 (stereo partly drawn) [Example 113, N-[(1R)-1-[3-amino-5-(trifluoromethyl)phenyl]ethyl]-2-chloro-7-(oxolan-3-ylmethyl)-5H,6H,7H,8H,9H-pyrimido[4,5-d]aze-pin-4-amine] | > 1 |
| C[C@@H](Nc1nc(Cl)nc2c1CN(C(=O)C1(c3ncccn3)CC1)CC2)c1cc(N)cc(C(F)(F)F)c1 [Example 191] | > 1 |
| COc1ccc(C2(C(=O)N3CCc4nc(Cl)nc(N[C@H](C)c5cc(N)cc(C(F)(F)F)c5)c4C3)COC2)cc1 [Example 192] | > 1 |
| COC1(C(=O)N2CCc3nc(Cl)nc(N[C@H](C)c4cc(N)cc(C(F)(F)F)c4)c3C2)CCOC1 (stereo partly shown) [Example 198] | > 1 |
| C[C@@H](Nc1nc(Cl)nc2c1CN(C(=O)C1(N3CCOCC3)CCC1)CC2)c1cc(N)cc(C(F)(F)F)c1 [Example 207] | > 1 |
| C[C@@H](Nc1nc(Cl)nc2c1CN(C(=O)[C@]13CCC[C@H]1C3(F)F)CC2)c1cc(N)cc(C(F)(F)F)c1 [Example 217] | > 1 |
| C[C@@H](Nc1nc(Cl)nc2c1CN(C(=O)c1ncccc1C(F)(F)F)CC2)c1cc(N)cc(C(F)(F)F)c1 [Example 253] | > 1 |

Other lines, results leading:

| IC50 [µM] | SMILES |
| --- | --- |
| < 1 | CC(Nc1nc(Cl)nc2c1CN(C(=O)N1CCOCC1)C2)c1cccc2c1C[C@H](CO)C2 (stereo in doubt) [Example 464, (2-chloro-4-(((R)-1-((R)-2-(hydroxymethyl)-2,3-dihydro-1H-inden-4-yl)ethyl)amino)-5,7-dihydro-6H-pyrrolo[3,4-d]pyrimidin-6-yl)(morpholino)methanone] |
| > 1 | CC(Nc1nc(Cl)nc2c1CN(C(=O)N1CCOCC1)C2)c1cccc2c1C[C@@H](CO)C2 (stereo in doubt) [Example 465, (2-chloro-4-(((R)-1-((S)-2-(hydroxymethyl)-2,3-dihydro-1H-inden-4-yl)ethyl)amino)-5,7-dihydro-6H-pyrrolo[3,4-d]pyrimidin-6-yl)(morpholino)methanone] |
| < 1 | C[C@@H](Nc1nc(Cl)nc2c1CN(C(=O)N1CCOc3ccncc31)C2)c1cccc(C(F)(F)F)c1 [Example 373] |
| > 1 | C[C@@H](Nc1nc(Cl)nc2c1CN(C(=O)N1CCOCC1)C2)c1cc(F)cc(C(F)(F)F)c1 [Example 511, 2-chloro-N-[(1R)-1-[3-fluoro-5-(trifluoromethyl)phenyl]ethyl]-6-(morpholine-4-carbonyl)-5H,6H,7H-pyrrolo[3,4-d]pyrimidin-4-amine] |
| > 1 | C[C@@H](Nc1nc(Cl)nc2c1CC1(CC2)OCCO1)c1cc(N)cc(C(F)(F)F)c1 [Example 514, N-[(1R)-1-[3-amino-5-(trifluoromethyl)phenyl]ethyl]-2′-chloro-7′,8′-dihydro-5′H-spiro[1,3-dioxolane-2,6′-quinazoline]-4′-amine] |
| > 1 | Cc1cc([C@@H](C)Nc2nc(Cl)nc3c2CN(C(=O)N2CCOCC2)C3)cc(C(F)(F)F)c1 [Example 515, 2-chloro-N-[(1R)-1-[3-methyl-5-(trifluoromethyl)phenyl]ethyl]-6-(morpholine-4-carbonyl)-5H,6H,7H-pyrrolo[3,4-d]pyrimidin-4-amine] |

Reference: US20230096028A1, “BICYCLIC HETEROCYCLYL COMPOUNDS AND USES THEREOF” (Revolution Medicines, Inc., priority 2019, published 2023)
